Laboratory results: patent US20090317376A1, “Compositions And Methods For Lipo Modeling” (Georgetown University MEDICAL SCHOOL, priority 2005, published 2009)

Tested on: endothelial cells
Test: Endothelial cell proliferation (mitogenic assay)
Assay type: cell-based, human
Source text: To mimic stress-released NPY in vitro, conditioned media from, or coculture with, neuroblastoma SKNBE cells (a model of sympathetic neurons which release 0.1 pM NPY) is used to treat endothelial cells and 3T3-L1 preadipocytes. Both cell lines express all NPYRs but lack NPY (confirmed by RT-PCR and IHC, FIG. […] 6). […] When 3T3-L1 preadipocytes are cocultured with HMVEC, there is no significant mitogenic response between treated and untreated cells.
Co-culture: For mitogenic assay and expression studies, co-culture is performed in a Costar Transwell system. Cells are plated on the 6-well plates and the inserts with 0.4 μm Polyester membranes. After they reach 30% confluence, the inserts are placed into plates with other cells. Co-culture of neuroblastomas/SCG neurons with aECs are carried out in EC media and with preadipocytes—in preadipocyte growth media. […] After 48 h, the cells are counted with a coulter counter. […]
Mitogenic assays: 3T3-L1 pre-adipocytes are allowed to grow to 30% confluency before serum-starving the cells. […] Proliferation is determined by cell counting using a coulter counter (Beckman Coulter, Miami, Fla.). […] After 24 h, cells are harvested in a 96-well harvester (Tomtec) and counted in a Betaplate Liquid Scintillation Counter (Wallac).
1. […] After 24 h, cells were harvested in a 96-well harvester (Tomtec) and counted in a Betaplate Liquid Scintillation Counter (Wallac). […]

Molecule | endothelial cell proliferation (NPY treatment of endothelial cells) | block of NPY- and neuroblastoma-conditioned media-stimulated endothelial cell proliferation (BIIE0246 1 μM)
neuropeptide Y [NPY] | stimulated | –
N=C(N)NCCC[C@H](NC(=O)CC1(CC(=O)N2CCN(C3c4ccccc4NC(=O)c4ccccc43)CC2)CCCC1)C(=O)NCCn1c(=O)n(-c2ccccc2)n(-c2ccccc2)c1=O (some centres unmarked) [BIIE0246] | – | blocked
